Reference: the supplement of paper PMC8882468

Assays:
Assay in all cases: CTG-3D luminescence at 96 h relative to day-0 seeding control (ratio to day 0); higher = more growth / less cytotoxicity; PDxO 3D drug screen, 96 h, CTG-3D normalised to day-0 seeding control.
HCI-001 = tested on: HCI-001 (organoid from a triple-negative breast cancer xenograft)
HCI-003.E2 = tested on: HCI-003.E2 (organoid from an ER-positive breast cancer xenograft)
HCI-027 = tested on: HCI-027 (organoid from a triple-negative breast cancer xenograft)
HCI-012 = tested on: HCI-012 (organoid from a breast cancer xenograft)
HCI-024 = tested on: HCI-024 (organoid from a breast cancer xenograft)

CCc1c2c(nc3ccc(O)cc13)-c1cc3c(c(=O)n1C2)COC(=O)[C@]3(O)CC [SN-38]
CTG-3D luminescence at 96 h
Conditions | 12.5 pM | 0.00025 µM | 0.005 µM | 0.1 µM | 1 µM | 10 µM | 100 µM | 625 fM
HCI-001, days in culture: 240 | 1.51 | 0.771 | 0.767 | 0.396 | 0.155 | 0.0446 | 0.0627 | 1.46
HCI-001, days in culture: 260 | 2.58 | 1 | 1.24 | 0.603 | 0.195 | 0.0569 | 0.027 | 1.29
HCI-001, days in culture: 269 | 1.53 | 1.63 | 1.32 | 0.477 | 0.161 | 0.0511 | 0.0406 | 1.73
HCI-001, days in culture: 327 | 1.72 | 1.61 | 1.83 | 0.602 | 0.127 | 0.0312 | 0.0351 | 2.1
HCI-001, days in culture: 346 | 1.26 | 1.2 | 0.977 | 0.483 | 0.105 | 0.0311 | 0.0287 | 1.11
HCI-001, days in culture: 364 | 1.37 | 0.978 | 1.19 | 0.283 | 0.0835 | 0.0303 | 0.0177 | 1.76
HCI-012, days in culture: 143 | 1.85 | 2.16 | 0.415 | 0.0623 | 0.0329 | 0.0255 | 0.0169 | 1.9
HCI-012, days in culture: 162 | 2.38 | 1.99 | 0.295 | 0.0642 | 0.0329 | 0.0269 | 0.0164 | 2.73
HCI-012, days in culture: 201 | 2.31 | 1.99 | 0.824 | 0.0348 | 0.0248 | 0.0127 | 0.014 | 1.61
HCI-024, days in culture: 105 | 1.67 | 1.42 | 1.1 | 0.734 | 0.264 | 0.153 | 0.114 | 1.9
HCI-024, days in culture: 122 | 2.16 | 2.39 | 1.58 | 0.768 | 0.272 | 0.192 | 0.13 | 2.86
HCI-024, days in culture: 163 | 1.84 | 1.76 | 1.18 | 0.824 | 0.262 | 0.185 | 0.173 | 2.01
HCI-027, days in culture: 176 | 1.94 | 1.79 | 1.19 | 0.371 | 0.104 | 0.0345 | 0.0407 | 1.74
HCI-027, days in culture: 194 | 1.81 | 1.39 | 0.614 | 0.307 | 0.0805 | 0.0428 | 0.0357 | 1.66
HCI-027, days in culture: 201 | 2.6 | 2.5 | 0.717 | 0.272 | 0.0912 | 0.0373 | 0.029 | 2.46

HCI-003.E2
Conditions | CTG-3D luminescence at 96 h
12.5 pM | 2.07
0.00025 µM | 2.06
0.005 µM | 1.68
0.1 µM | 1.64
1 µM | 1.24
10 µM | 0.339
100 µM | 0.213
625 fM | 1.94
